Reference: PubChem BioAssay (NCI)
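The compound was tested at five concentrations on cells cultured in 96-well plates, with a 48-hour exposure period. At the GI50, growth is halved. The concentration for full growth arrest is given as TGI.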

What was measured:
Assay in all cases: NCI tumour cell line growth inhibition, 48 h
[1] = tested on: T-47D breast
[2] = tested on: MDA-MB-468 breast
[3] = tested on: SNB-19 CNS
[4] = tested on: UO-31 renal
[5] = tested on: TK-10 renal
[6] = tested on: HL-60(TB) leukemia
[7] = tested on: SW-620 colon
[8] = tested on: SR leukemia
[9] = tested on: MCF7 breast
[10] = tested on: SN12C renal
[11] = tested on: BT-549 breast
[12] = tested on: NCI-H460 lung
[13] = tested on: SK-MEL-28 melanoma
[14] = tested on: MDA-MB-231 breast
[15] = tested on: HOP-92 NSCLC
[16] = tested on: SK-MEL-5 melanoma
[17] = tested on: A549 NSCLC
[18] = tested on: NCI-H23 lung
[19] = tested on: HT29 colon
[20] = tested on: SK-MEL-2 melanoma
[21] = tested on: HOP-62 NSCLC
[22] = tested on: OVCAR-3 ovarian
[23] = tested on: UACC-257 melanoma
[24] = tested on: UACC-62 melanoma
[25] = tested on: CCRF-CEM leukemia
[26] = tested on: MDA-MB-435
[27] = tested on: SF-295 CNS
[28] = tested on: OVCAR-5 ovarian
[29] = tested on: ACHN renal
[30] = tested on: HCT-15 colon
[31] = tested on: HCC-2998 colon
[32] = tested on: NCI-H522 lung
[33] = tested on: SNB-75 CNS
[34] = tested on: 786-0 renal
[35] = tested on: IGROV1 ovarian
[36] = tested on: EKVX NSCLC
[37] = tested on: MALME-3M melanoma
[38] = tested on: M14 melanoma
[39] = tested on: K-562 leukemia
[40] = tested on: NCI-H226 lung
[41] = tested on: RXF 393 renal
[42] = tested on: OVCAR-8 ovarian
[43] = tested on: KM12 colon
[44] = tested on: HS 578T breast
[45] = tested on: NCI/ADR-RES ovarian
[46] = tested on: SF-539 CNS
[47] = tested on: U251 CNS
[48] = tested on: CAKI-1 renal
[49] = tested on: SF-268 CNS
[50] = tested on: COLO 205 colon
[51] = tested on: MOLT-4 leukemia
[52] = tested on: LOX IMVI melanoma
[53] = tested on: RPMI-8226 leukemia
[54] = tested on: OVCAR-4 ovarian
[55] = tested on: SK-OV-3 ovarian
[56] = tested on: HCT-116 colon
[57] = tested on: PC-3 prostate
[58] = tested on: A498 renal
[59] = tested on: DU-145 prostate

O=C(NO)c1ccc(CNc2nc(-c3ccccc3)c3ccccc3n2)cc1
GI50 [1]: 2.28 µM
TGI [1]: 21.7 µM
GI50 [2]: 1.49 µM
TGI [2]: 5.41 µM
GI50 [3]: 2.83 µM
TGI [3]: 9.91 µM
GI50 [4]: 1.99 µM
TGI [4]: 6.71 µM
GI50 [5]: 2.12 µM
TGI [5]: > 19.8 µM
GI50 [6]: 3.59 µM
TGI [6]: > 28 µM
GI50 [7]: 2.09 µM
TGI [7]: 5.91 µM
GI50 [8]: > 18.1 µM
TGI [8]: > 28 µM
GI50 [9]: 3.22 µM
TGI [9]: > 28 µM
GI50 [10]: 3.09 µM
TGI [10]: 12 µM
GI50 [11]: 3.99 µM
TGI [11]: 15.8 µM
GI50 [12]: 3.04 µM
TGI [12]: > 17.1 µM
GI50 [13]: 2.42 µM
TGI [13]: 8.17 µM
GI50 [14]: 2.44 µM
TGI [14]: 8.22 µM
GI50 [15]: 1.95 µM
TGI [15]: 6.6 µM
GI50 [16]: 1.62 µM
TGI [16]: 3.32 µM
GI50 [17]: 3.23 µM
TGI [17]: > 13.4 µM
GI50 [18]: 2.24 µM
TGI [18]: 7.72 µM
GI50 [19]: 2.46 µM
TGI [19]: > 23.3 µM
GI50 [20]: 1.42 µM
TGI [20]: 7.54 µM
GI50 [21]: 2.88 µM
TGI [21]: 12.2 µM
GI50 [22]: 2.68 µM
TGI [22]: 8.7 µM
GI50 [23]: 2.02 µM
TGI [23]: > 16.5 µM
GI50 [24]: 1.34 µM
TGI [24]: 3.16 µM
GI50 [25]: 2.73 µM
TGI [25]: > 28 µM
GI50 [26]: 2.4 µM
TGI [26]: > 9.06 µM
GI50 [27]: 1.84 µM
TGI [27]: 4.69 µM
GI50 [28]: 1.55 µM
TGI [28]: 4.87 µM
GI50 [29]: 2.05 µM
TGI [29]: 5.55 µM
GI50 [30]: 2.85 µM
TGI [30]: 9.1 µM
GI50 [31]: 1.82 µM
TGI [31]: 5.63 µM
GI50 [32]: 1.85 µM
TGI [32]: 8.25 µM
GI50 [33]: 2.36 µM
TGI [33]: > 12 µM
GI50 [34]: 2.75 µM
TGI [34]: 11.8 µM
GI50 [35]: 2.29 µM
TGI [35]: 6.96 µM
GI50 [36]: 3.59 µM
TGI [36]: > 17 µM
GI50 [37]: 1.36 µM
TGI [37]: 4.72 µM
GI50 [38]: 3.2 µM
TGI [38]: > 13.5 µM
GI50 [39]: 3.05 µM
TGI [39]: > 28 µM
GI50 [40]: 2.67 µM
TGI [40]: 14.6 µM
GI50 [41]: 1.23 µM
TGI [41]: 3.58 µM
GI50 [42]: 2.65 µM
TGI [42]: > 12.4 µM
GI50 [43]: 3.69 µM
TGI [43]: > 12.5 µM
GI50 [44]: 2.47 µM
TGI [44]: > 28 µM
GI50 [45]: 0.159 µM
TGI [45]: 0.954 µM
GI50 [46]: 2.77 µM
TGI [46]: > 11.3 µM
GI50 [47]: 2.37 µM
TGI [47]: 8.78 µM
GI50 [48]: 2.5 µM
TGI [48]: 8.52 µM
GI50 [49]: 3.57 µM
TGI [49]: 15.2 µM
GI50 [50]: 1.69 µM
TGI [50]: 3.81 µM
GI50 [51]: 3.01 µM
TGI [51]: > 28 µM
GI50 [52]: 2.08 µM
TGI [52]: 5.35 µM
GI50 [53]: 2.36 µM
TGI [53]: > 28 µM
GI50 [54]: 5.4 µM
TGI [54]: > 20.6 µM
GI50 [55]: 2.15 µM
TGI [55]: 6.25 µM
GI50 [56]: 2.04 µM
TGI [56]: 8.01 µM
GI50 [57]: 4.84 µM
TGI [57]: 27.3 µM
GI50 [58]: 1.68 µM
TGI [58]: 5.45 µM
GI50 [59]: 2.78 µM
TGI [59]: > 28 µM
